Results: patent US9073880B2, “2-(2-phenylethenyl) 1,3-benzodiazepine derivatives useful for the treatment of cancer” (Yissum Research Development Company of the Hebrew …, priority 2010, dated 2015)

Columns and labels:
IGF-1R = target: T1, IGF-1R (Homo sapiens, UniProt P08069); experiment: IGF1-induced IGF-1R auto-phosphorylation in MCF7 cells (western blot); assay type: cell-based; details: 10 μM, FIG. 3
T1 construct: endogenous in cells; host or cells: MCF7 human breast cancer cells
Experimental: (§1) Tyrosine autophosphorylation of the β-subunit of IGF-1R as well as downstream signaling induced by IGF-1R were assayed in human breast cancer MCF7 cells and in melanoma A375 cells. Cells were seeded in 6-well plates (250,000 A375 cells/well and 300,000 MCF7 cells/well) and 24 hours later medium was replaced by serum-free medium (RPMI supplemented with 100 units/ml penicillin and 100 μg/ml streptomycin). MCF7 cells were exposed for 48 hr to compound 3 at 10 μM concentration, and then stimulated for 5 minutes with 50 ng/ml IGF-1, washed twice with PBS and lysed by boiling sample buffer (10% glycerol, 50 mM Tris-HCl, pH 6.8, 3% SDS, and 5% (3-mercaptoethanol). Equal amounts of protein per lane were separated by 8% SDS-PAGE and transferred to a nitrocellulose membrane (Sartorius AG). Phosphorylated proteins were immunoblotted with anti-phosphoIGF-1R (pIGF-1R), anti-phosphotyrosine-IRS1 (pY-IRS I) and anti-phospho(T308)Akt (pPKB) antibodies. Detection was performed with horseradish peroxidase-conjugated secondary antibody using the ECL system. Blots were then stripped of antibodies, blocked with TBST with 5% low fat milk and re-probed with antibodies detecting both the phosphorylated and the non-phosphorylated corresponding proteins e.g. IGF-1Rβ, IRS1 and PKB.

PKB/Akt = experiment: IGF1-induced PKB/Akt activation in A375 cells (Example 3); assay type: cell-based, human; details: melanoma A375 cells treated 4 hr, 1 and 3 μM; FIG. 4
Experimental: as §1, with “Blots were then stripped of antibodies, blocked with TBST with 5% low fat milk and re-probed with antibodies detecting both the phosphorylated and the non-phosphorylated corresponding proteins e.g. IGF-1Rβ, IRS1 and PKB.” left out
In addition, lysates of human melanoma A375 cells were prepared from cells exposed to compound 3 at 1 and 3 μM concentrations in serum-free medium. […] In this experiment the phosphorylated form of IRS1 on Serine-636/639 and the levels of IRS2 were detected as well.

[1] = test system: human ovary A2780 tumor cells; experiment: Survival of nude mice bearing intraperitoneal human ovarian A2780 tumors; assay type: in vivo; details: for median survival time: IV, control 28 days
Experimental: In order to determine the effect of the compounds of the present invention on the growth and spread of tumors in-vivo, the compounds were administered to nude mice bearing human ovarian cancer. […] A model of peritoneal carcinomatosis formation, involving intraperitoneal administration of human ovary A2780 tumor cells, was used.
Two million human ovarian A2780 cells were injected to the peritoneum of 4-5 weeks old female nude mice. A week later, treatments with compound 3 or vehicle were initiated. Compound 3 was administered IV, daily at a dose of 3 mg/kg or weekly at a dose of 12 mg/kg for the time periods indicated in FIG. 7. The control group was weekly administered (IV) with the vehicle (20% 2-hydroxypropyl-b-cyclodextrin). Each group included 10 mice.

human myeloma U266 cells = experiment: Cell proliferation, U266 (Example 2); assay type: cell-based; details: U-266, U266, multiple myeloma, 72 hours, 0.1% DMSO, WST-1
Experimental: Human ovary cancer A2780 cells lines were seeded at a density of 5000 cells/well, human melanoma A375 cells were plated at a density of 2,500 cells/well, human colon carcinoma HCT15 cells were plated at a density of 3,000 cells/well, human prostate carcinoma PC3 cells were plated at a density of 1,500 cells/well, human breast carcinoma MCF7 cells were plated at a density of 5,000 cells/well, human breast carcinoma MDA MB 468 cells were plated at a density of 6,000 cells/well, human myeloma U266, RPMI8226 and CAG cells were plated at a density of 10,000 cells/well. All cells were plated in 96-well plates in 90 μl growth medium containing 10% FCS, 100 units/ml penicillin and 100 μg/ml streptomycin. Compound 3 was added a day later in […] of 1% DMSO in DDW to obtain final concentrations of 0, 0.1, 0.3, 1, 3, and 10 μM. The final concentration of DMSO (0.1% DMSO) was kept constant in all samples. […] The optical density values were read at 630 nm in ELISA plate reader. Non-adhered cells were exposed to WST-1 reagent for 5 hours following 72 hours treatment with the inhibitors, and optical density values were read at 630 nm in ELISA plate reader. The data was analyzed in Microsoft Excel, using the vehicle control as 100% proliferation. […]

[2] = test system: human melanoma A375 cells; experiment: Cell death (PARP cleavage) in A375 cells; assay type: cell-based
Experimental: The effect of compound 5 on IRS1 & IRS2 levels and its effect on IGF1-induced Akt/PKB activation and apoptosis in melanoma A375 cells were tested. Cells were seeded in 6-well plates (150,000 A375 cells/well) and 24 hours later medium was replaced by serum-free medium (RPMI supplemented with 100 units/ml penicillin and 100 μg/ml streptomycin), […], and then stimulated for 5 minutes with 50 ng/ml IGF-1, washed twice with PBS and lysed by boiling sample buffer (10% glycerol, 50 mM Tris-HCl, pH 6.8, 3% SDS, and 5% β-mercaptoethanol). Equal amounts of protein per lane were separated by 8% SDS-PAGE and transferred to a nitrocellulose membrane (Sartorius AG). To detect the inhibition of the Akt/PKB activation, phosphorylated proteins were immunoblotted with anti-phospho(T308)Akt (pT308-PKB) and anti-phospho-Tuberin/TSC2 (pTuberin) antibodies. To visualize cell death induced by compound 5, the intact and the cleaved PARP were immunoblotted with anti-PARP antibody. The changes in the levels of IRS1 and IRS2 were detected with specific antibodies. Detection was performed with horseradish peroxidase-conjugated secondary antibody using the ECL system. Blots were then stripped of antibodies, blocked with TBST with 5% low fat milk and re-probed with antibodies detecting both the phosphorylated and the non-phosphorylated Akt/PKB. […]

T1 sequence (P08069 31-1367): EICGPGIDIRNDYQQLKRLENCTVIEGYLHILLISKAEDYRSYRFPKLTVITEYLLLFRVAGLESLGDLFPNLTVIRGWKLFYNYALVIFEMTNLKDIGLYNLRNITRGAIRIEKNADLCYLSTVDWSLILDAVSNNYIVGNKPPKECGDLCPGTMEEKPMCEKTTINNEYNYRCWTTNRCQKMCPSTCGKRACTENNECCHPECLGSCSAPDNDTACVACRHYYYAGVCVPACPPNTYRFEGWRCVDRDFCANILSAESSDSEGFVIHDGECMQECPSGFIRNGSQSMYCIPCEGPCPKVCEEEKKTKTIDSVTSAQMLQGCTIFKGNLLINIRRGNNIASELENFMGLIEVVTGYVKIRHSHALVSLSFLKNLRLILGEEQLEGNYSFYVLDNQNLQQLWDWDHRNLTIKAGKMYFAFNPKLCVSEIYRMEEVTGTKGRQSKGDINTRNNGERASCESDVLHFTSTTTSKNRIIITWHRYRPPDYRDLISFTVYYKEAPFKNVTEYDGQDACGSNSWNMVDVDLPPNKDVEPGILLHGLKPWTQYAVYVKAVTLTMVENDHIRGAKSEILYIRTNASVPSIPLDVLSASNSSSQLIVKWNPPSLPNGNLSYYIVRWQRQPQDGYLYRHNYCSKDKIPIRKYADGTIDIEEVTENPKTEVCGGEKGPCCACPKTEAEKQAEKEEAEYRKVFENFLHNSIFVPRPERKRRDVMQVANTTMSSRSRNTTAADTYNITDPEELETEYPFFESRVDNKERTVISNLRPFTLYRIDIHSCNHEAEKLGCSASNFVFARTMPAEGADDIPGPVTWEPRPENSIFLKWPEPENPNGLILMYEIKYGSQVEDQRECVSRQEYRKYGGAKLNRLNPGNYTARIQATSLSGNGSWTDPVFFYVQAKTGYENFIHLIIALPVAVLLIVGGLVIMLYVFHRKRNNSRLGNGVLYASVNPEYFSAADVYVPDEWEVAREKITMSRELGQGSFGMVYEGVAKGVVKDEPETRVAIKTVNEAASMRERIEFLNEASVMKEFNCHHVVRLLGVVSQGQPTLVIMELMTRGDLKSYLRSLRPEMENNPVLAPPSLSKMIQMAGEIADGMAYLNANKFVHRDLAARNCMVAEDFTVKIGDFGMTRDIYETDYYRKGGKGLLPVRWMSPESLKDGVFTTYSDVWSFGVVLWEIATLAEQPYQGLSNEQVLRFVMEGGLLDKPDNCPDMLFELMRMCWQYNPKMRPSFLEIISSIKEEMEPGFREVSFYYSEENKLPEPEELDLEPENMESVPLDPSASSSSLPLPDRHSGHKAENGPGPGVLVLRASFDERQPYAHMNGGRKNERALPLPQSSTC

O=c1c(O)cc2cnc(/C=C/c3cc(O)c(O)c(Br)c3)sc-2c1O [Compound 3]
IGF1-induced auto-phosphorylation of IGF-1R (IGF-1R; 48 hr, 50 ng/ml IGF-1 5 minutes): significantly inhibited | duration of the inhibitory effect (IGF-1R): more than 48 hr | IGF1-induced PKB/Akt activation (PKB/Akt): inhibition of IGF1-induced PKB/Akt activation | median survival time compared to Cisplatin and Sunitinib ([1]; 50 mg/kg daily IV vs Cisplatin 3 mg/kg ip 3 times a week for two weeks and Sunitinib 40 mg/kg daily PO, data not shown): preferable median survival time | median survival time ([1]; daily, 3 mg/kg, FIG. 7): over 81 days | median survival time ([1]; weekly, 12 mg/kg, FIG. 7): over 81 days | survival compared to control mice ([1]; intravenous treatment, 3 mg/kg daily or 12 mg/kg weekly, FIG. 7): dramatically increased survival | IC50 (human myeloma U266 cells): 700 nM

O=c1c(O)cc2cnc(/C=C/c3ccc(O)c(O)c3Br)sc-2c1O [Compound 5]
cell death (PARP cleavage) ([2]; 3 μM, 48 hr, FIG. 6A, 6B): induced cell death (PARP cleavage) | cell death (PARP cleavage) after washout ([2]; 5 μM for 4 hr, 24 hr following washout, FIG. 6C): enough to trigger a process which leads to cell death
